The subject of this test is patients with contact lens-related dry eye disease (CLDE). The test is described as follows: Study of azithromycin 1% ophthalmic solution vs rewetting drops over four weeks in contact lens-related dry eye disease (Example 2). The class given is in vivo, human. An excerpt: The objective of this study is to compare the efficacy of study drug, AZASITE® (azithromycin ophthalmic solution) 1%, versus rewetting drops (Visine for Contacts™) over a four week treatment period in patients with contact lens-related dry eye disease (CLDE).
Subjects are 18 years of age or older. Subjects have a positive diagnosis of CLDE based on their responses to the Contact Lens Dry Eye Questionnaire (CLDEQ, Nichols et al, Cornea 21:469-75 (2002)) and a score of ≧2, (i.e., moderate severity on a 0-4 scale, where 0=no ocular dryness and 4=very severe ocular dryness) on a self-reported assessment of ocular dryness at the screening Visit. A total of 50 subjects are enrolled in the study.
Subjects were asked to rate their level of ocular dryness on a 0-4 scale. Tear osmolarity was then assessed for each eye using the TearLab Osmolarity System®. Subjects were then instructed to remove their contact lenses and slit-lamp biomicroscopy and external eye exams were performed. Fluorescein corneal staining was then performed on each eye (5 μl of 2% fluorescein applied to the ocular surface) and graded according to National Eye Institute (NEI) criteria.
Eligible subjects were then randomized to receive either azithromycin 1% ophthalmic solution (AzaSite®), or rewetting drops (Visine for Contacts™) in a 1:1 ratio and they were not masked as to the treatment assignment. Subjects randomized to azithromcyin 1% were instructed to administer one drop to each eye BID for the first two days and then one drop QD for days 3-29. Subjects randomized to rewetting drops were instructed to administer one to two drops QID throughout the 29 day treatment period. The first dose of study medication was self-administered at the clinic once dosing instructions were provided. […]
Concomitant medication usage was recorded, an AE query performed, study medication and diary cards were collected. Subjects underwent habitual HCVA and LCVA assessment, completed the CLDEQ, and had tear osmolarity readings measured prior to removing their contact lenses. […]

For `CC[C@H]1OC(=O)[C@H](C)[C@@H](O[C@H]2C[C@@](C)(OC)[C@@H](O)[C@H](C)O2)[C@H](C)[C@@H](O[C@@H]2O[C@H](C)C[C@H](N(C)C)[C@H]2O)[C@](C)(O)C[C@@H](C)CN(C)[C@H](C)[C@@H](O)[C@]1(C)O` [azithromycin], the “mean ocular dryness scores, AM assessment” value (FIG. 2, prior to instilling study medication) is reported as “lower”. For the same molecule, where the note is “FIG. 3, prior to lens removal”, the “mean ocular dryness scores, PM assessment” value is reported as “lower”. Also, the “mean daily duration of comfortable contact lens wear time” value (each of the weekly endpoints (Weeks 1-4), FIG. 1) is recorded as “longer”.

Values taken from patent US20110245190A1, “METHOD FOR IMPROVING POST SURGERY VISUAL ACUITY OUTCOME WITH AZITHROMYCIN” (priority 2009, published 2011).
